The values below are quoted from earlier work in PubChem BioAssay AID1259409 (Chemical Carcinogenesis Research Information System (CCRIS), 2018).

This data set relates to rodent chemically induced tumor inhibition, incidence and multiplicity. Put plainly: CCRIS tumor inhibitor studies. The settings on record: Species: RAT, Strain/Sex: F344/MALE.

As to `O=P(O)(O)OC1C(OP(=O)(O)O)C(OP(=O)(O)O)C(OP(=O)(O)O)C(OP(=O)(O)O)C1OP(=O)(O)O` (stereo not given), the “tumour outcome (control, treated, inhibition, significance)” value (Carcinogen: 2,2'-DIHYDROXY-DI-N-PROPYLNITROSAMINE [621-64-7], N-ETHYL-N-HYDROXYETHYLNITROSAMINE [13147-25-6], 3,2'-DIMETHYL-4-AMINOB, Carcinogen: 2,2'-DIHYDROXY-DI-N-PROPYLNITROSAMINE [621-64-7], N-ETHYL-N-HYDROXYETHYLNITROSAMINE [13147-25-6], 3,2'-DIMETHYL-4-AMINOB, Dose [Inhibitor]: 2% IN DIET FOR 32 WK BEGINNING 1 WK POST LAST CARCINOGEN DOSE (STUDY DURATION: 32 WK), Route [Inhibitor]: ORAL, Target Tissue: Type of Lesion: LIVER: ADENOMA, Dose [Carcinogen]: 1000 MG/KG BW DHPN IP 2X/3 WK, 1500 MG/KG BW EHEN IP 2X/3 WK, 75 MG/KG BW DMAB SC 3X/3 WK;, Dose [Carcinogen]: 1000 MG/KG BW DHPN IP 2X/3 WK, 1500 MG/KG BW EHEN IP 2X/3 WK, 75 MG/KG BW DMAB SC 3X/3 WK;, Promoter: NONE) is on record as 9/14 (64%), 5/12 (42%), 34%, p<0.01; the “tumour outcome (control, treated, inhibition, significance)” value (Carcinogen: 2,2'-DIHYDROXY-DI-N-PROPYLNITROSAMINE [621-64-7], N-ETHYL-N-HYDROXYETHYLNITROSAMINE [13147-25-6], 3,2'-DIMETHYL-4-AMINOB, Carcinogen: 2,2'-DIHYDROXY-DI-N-PROPYLNITROSAMINE [621-64-7], N-ETHYL-N-HYDROXYETHYLNITROSAMINE [13147-25-6], 3,2'-DIMETHYL-4-AMINOB, Dose [Inhibitor]: 2% IN DIET FOR 32 WK BEGINNING 1 WK POST LAST CARCINOGEN DOSE (STUDY DURATION: 32 WK), Route [Inhibitor]: ORAL, Target Tissue: Type of Lesion: LIVER: CARCINOMA, Dose [Carcinogen]: 1000 MG/KG BW DHPN IP 2X/3 WK, 1500 MG/KG BW EHEN IP 2X/3 WK, 75 MG/KG BW DMAB SC 3X/3 WK;, Dose [Carcinogen]: 1000 MG/KG BW DHPN IP 2X/3 WK, 1500 MG/KG BW EHEN IP 2X/3 WK, 75 MG/KG BW DMAB SC 3X/3 WK;, Promoter: NONE) is 6/14 (43%), 1/12 (8%), 81%, not significant; the “tumour outcome (control, treated, inhibition, significance)” value (Carcinogen: 2,2'-DIHYDROXY-DI-N-PROPYLNITROSAMINE [621-64-7], N-ETHYL-N-HYDROXYETHYLNITROSAMINE [13147-25-6], 3,2'-DIMETHYL-4-AMINOB, Carcinogen: 2,2'-DIHYDROXY-DI-N-PROPYLNITROSAMINE [621-64-7], N-ETHYL-N-HYDROXYETHYLNITROSAMINE [13147-25-6], 3,2'-DIMETHYL-4-AMINOB, Dose [Inhibitor]: 2% IN DIET FOR 32 WK BEGINNING 1 WK POST LAST CARCINOGEN DOSE (STUDY DURATION: 32 WK), Route [Inhibitor]: ORAL, Target Tissue: Type of Lesion: LUNG: ADENOMA, Dose [Carcinogen]: 1000 MG/KG BW DHPN IP 2X/3 WK, 1500 MG/KG BW EHEN IP 2X/3 WK, 75 MG/KG BW DMAB SC 3X/3 WK;, Dose [Carcinogen]: 1000 MG/KG BW DHPN IP 2X/3 WK, 1500 MG/KG BW EHEN IP 2X/3 WK, 75 MG/KG BW DMAB SC 3X/3 WK;, Promoter: NONE) is given as 7/14 (50%), 9/12 (75%), -50%, not significant; the “tumour outcome (control, treated, inhibition, significance)” value (Carcinogen: 2,2'-DIHYDROXY-DI-N-PROPYLNITROSAMINE [621-64-7], N-ETHYL-N-HYDROXYETHYLNITROSAMINE [13147-25-6], 3,2'-DIMETHYL-4-AMINOB, Carcinogen: 2,2'-DIHYDROXY-DI-N-PROPYLNITROSAMINE [621-64-7], N-ETHYL-N-HYDROXYETHYLNITROSAMINE [13147-25-6], 3,2'-DIMETHYL-4-AMINOB, Dose [Inhibitor]: 2% IN DIET FOR 32 WK BEGINNING 1 WK POST LAST CARCINOGEN DOSE (STUDY DURATION: 32 WK), Route [Inhibitor]: ORAL, Target Tissue: Type of Lesion: URINARY BLADDER: CARCINOMA, Dose [Carcinogen]: 1000 MG/KG BW DHPN IP 2X/3 WK, 1500 MG/KG BW EHEN IP 2X/3 WK, 75 MG/KG BW DMAB SC 3X/3 WK;, Dose [Carcinogen]: 1000 MG/KG BW DHPN IP 2X/3 WK, 1500 MG/KG BW EHEN IP 2X/3 WK, 75 MG/KG BW DMAB SC 3X/3 WK;, Promoter: NONE) was 1/14 (7%), 4/12 (33%), -371%, not significant; the “tumour outcome (control, treated, inhibition, significance)” value (Carcinogen: 2,2'-DIHYDROXY-DI-N-PROPYLNITROSAMINE, 53609-64-6, N-ETHYL-N-HYDROXYETHYL- NITROSAMINE, 13147-25-6, 3,2'-DIMETHYL-4-, Carcinogen: 2,2'-DIHYDROXY-DI-N-PROPYLNITROSAMINE, 53609-64-6, N-ETHYL-N-HYDROXYETHYL- NITROSAMINE, 13147-25-6, 3,2'-DIMETHYL-4-, Dose [Inhibitor]: 0, 2% IN DIET BEGINNING 1 WK POST LAST CARCINOGEN DOSE AND CONTINUING FOR 32 WK (STUDY DURATION: 36 WK), Route [Inhibitor]: 0RAL, Target Tissue: Type of Lesion: URINARY BLADDER: CARCINOMA, Dose [Carcinogen]: 1000 MG/KG IP DHPN 2X, 1500 MG/KG GAV EHEN 2X AND 75 MG/KG SC DMAB 3X GIVEN OVER THE INITIAL 3 WK PERIOD AT 3-4 D INTERV, Promoter: NONE USED) is listed as 1/14 (7%), 2/12 (17%), -143%, not calculated; the “tumour outcome (control, treated, inhibition, significance)” value (Carcinogen: 2,2'-DIHYDROXY-DI-N-PROPYLNITROSAMINE, 53609-64-6, N-ETHYL-N-HYDROXYETHYL- NITROSAMINE, 13147-25-6, 3,2'-DIMETHYL-4-, Carcinogen: 2,2'-DIHYDROXY-DI-N-PROPYLNITROSAMINE, 53609-64-6, N-ETHYL-N-HYDROXYETHYL- NITROSAMINE, 13147-25-6, 3,2'-DIMETHYL-4-, Dose [Inhibitor]: 0, 2% IN DIET BEGINNING 1 WK POST LAST CARCINOGEN DOSE AND CONTINUING FOR 32 WK (STUDY DURATION: 36 WK), Route [Inhibitor]: ORAL, Target Tissue: Type of Lesion: LARGE INTESTINE: ADENOMA, Dose [Carcinogen]: 1000 MG/KG/ IP DHPN 2X, 1500 MG/KG GAV EHEN 2X AND 75 MG/KG SC DMAB 3X GIVEN OVER THE INITIAL 3 WK AT 3-4 D INTERVALS, Promoter: NONE USED) is 7/14 (50%), 5/12 (42%), 16%, not calculated. The “tumour outcome (control, treated, inhibition, significance)” value by setting is: (Carcinogen: 2,2'-DIHYDROXY-DI-N-PROPYLNITROSAMINE, 53609-64-6, N-ETHYL-N-HYDROXYETHYL- NITROSAMINE, 13147-25-6, 3,2'-DIMETHYL-4-, Carcinogen: 2,2'-DIHYDROXY-DI-N-PROPYLNITROSAMINE, 53609-64-6, N-ETHYL-N-HYDROXYETHYL- NITROSAMINE, 13147-25-6, 3,2'-DIMETHYL-4-, Dose [Inhibitor]: 0, 2% IN DIET BEGINNING 1 WK POST LAST CARCINOGEN DOSE AND CONTINUING FOR 32 WK (STUDY DURATION: 36 WK), Route [Inhibitor]: ORAL, Target Tissue: Type of Lesion: LARGE INTESTINE: CARCINOMA, Dose [Carcinogen]: 1000 MG/KG IP DHPN 2X, 1500 MG/KG GAV EHEN 2X AND 75 MG/KG SC DMAB 3X GIVEN OVER THE INITIAL 3 WK PERIOD AT 3-4 D INTERV, Promoter: NONE USED) 3/14 (21%), 4/12 (33%), -57%, not calculated; (Carcinogen: 2,2'-DIHYDROXY-DI-N-PROPYLNITROSAMINE, 53609-64-6, N-ETHYL-N-HYDROXYETHYL- NITROSAMINE, 13147-25-6, 3,2'-DIMETHYL-4-, Carcinogen: 2,2'-DIHYDROXY-DI-N-PROPYLNITROSAMINE, 53609-64-6, N-ETHYL-N-HYDROXYETHYL- NITROSAMINE, 13147-25-6, 3,2'-DIMETHYL-4-, Dose [Inhibitor]: 0, 2% IN DIET BEGINNING 1 WK POST LAST CARCINOGEN DOSE AND CONTINUING FOR 32 WK (STUDY DURATION: 36 WK), Route [Inhibitor]: ORAL, Target Tissue: Type of Lesion: LIVER: HEPATOCELLULAR CARCINOMA, Dose [Carcinogen]: 1000 MG/KG IP DHPN 2X, 1500 MG/KG GAV EHEN 2X AND 75 MG/KG SC DMAB 3X GIVEN OVER THE INITIAL 3 WK AT 3-4 D INTERVALS, Promoter: NONE USED) 6/14 (43%), 1/12 (8%), 81%, not calculated; (Carcinogen: 2,2'-DIHYDROXY-DI-N-PROPYLNITROSAMINE, 53609-64-6, N-ETHYL-N-HYDROXYETHYL- NITROSAMINE, 13147-25-6, 3,2'-DIMETHYL-4-, Carcinogen: 2,2'-DIHYDROXY-DI-N-PROPYLNITROSAMINE, 53609-64-6, N-ETHYL-N-HYDROXYETHYL- NITROSAMINE, 13147-25-6, 3,2'-DIMETHYL-4-, Dose [Inhibitor]: 0, 2% IN DIET BEGINNING 1 WK POST LAST CARCINOGEN DOSE AND CONTINUING FOR 32 WK (STUDY DURATION: 36 WK), Route [Inhibitor]: ORAL, Target Tissue: Type of Lesion: LUNG: ADENOMA, Dose [Carcinogen]: 1000 MG/KG IP DHPN 2X, 1500 MG/KG GAV EHEN 2X AND 75 MG/KG SC DMAB 3X GIVEN OVER THE INITIAL 3 WK PERIOD AT 3-4 D INTERV, Promoter: NONE USED) 7/14 (50%), 9/12 (75%), -50%, not calculated. Further, the outcome (Carcinogen: 2,2'-DIHYDROXY-DI-N-PROPYLNITROSAMINE [621-64-7], N-ETHYL-N-HYDROXYETHYLNITROSAMINE [13147-25-6], 3,2'-DIMETHYL-4-AMINOB, Carcinogen: 2,2'-DIHYDROXY-DI-N-PROPYLNITROSAMINE [621-64-7], N-ETHYL-N-HYDROXYETHYLNITROSAMINE [13147-25-6], 3,2'-DIMETHYL-4-AMINOB, Dose [Inhibitor]: 2% IN DIET FOR 32 WK BEGINNING 1 WK POST LAST CARCINOGEN DOSE (STUDY DURATION: 32 WK), Route [Inhibitor]: ORAL, Target Tissue: Type of Lesion: URINARY BLADDER: PAPILLOMA, Dose [Carcinogen]: 1000 MG/KG BW DHPN IP 2X/3 WK, 1500 MG/KG BW EHEN IP 2X/3 WK, 75 MG/KG BW DMAB SC 3X/3 WK;, Dose [Carcinogen]: 1000 MG/KG BW DHPN IP 2X/3 WK, 1500 MG/KG BW EHEN IP 2X/3 WK, 75 MG/KG BW DMAB SC 3X/3 WK;, Promoter: NONE) is 0/14 (0%), 6/12 (50%), -100%, p<0.01.
